Measurements from patent US4110474A, “Tetramethylpentane blood substitutes” (Suntech, Inc., priority 1977, dated 1978).
Like-named read-outs stand apart in the source and are kept apart here.

Conditions: mouse, in vivo
Procedure: Mice were injected with the various emulsions. The mice were killed at intervals thereafter, the liver and spleen analyzed, and the percentage of original amount of PF material injected and still in the liver and spleen was determined.

## perfluoromethylpentane
  body retention: lack body retention characteristics
2880 min
  % FC (Of Injected Dose) in LIVER: 15%
  % FC (Of Injected Dose) in SPLEEN: 1.4%
10080 min
  % FC (Of Injected Dose) in LIVER: 12%
  % FC (Of Injected Dose) in SPLEEN: 6%
20160 min
  % FC (Of Injected Dose) in LIVER: 9.3%
  % FC (Of Injected Dose) in SPLEEN: 9.2%
41760 min
  % FC (Of Injected Dose) in LIVER: 2.3%
  % FC (Of Injected Dose) in SPLEEN: 2.7%
